One block for each compound: values may come before it. The source made the active and inactive calls.
Key:
[1] = inhibitors of Vif binding to APOBEC3G peptide, primary screen, biochemical, TR-FRET, GST-Vif 1-94, biotin-A3G peptide, dose response retest (AID 1117319); format: functional;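 further: TR-FRET signal of purified GST-Vif binding a biotinylated A3G peptide; inhibitors lower the FRET signal by blocking Vif and A3G binding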
[2] = Luminescence Cell-Based Dose Confirmation HTS to Identify Activators of 5'UTR Stem-Loop Driven Alpha-Synuclein mRNA Translation in H4 Neuroglioblastoma Cells. [Related pubchem assays: 1829 (Project Summary), 1814 (Primary HTS)]; format: functional
[3] = molecular target: T1, Oxysterols receptor LXR-beta (Homo sapiens, UniProt P55055); format: functional, cell-based
T1 sequence (P55055 whole entry): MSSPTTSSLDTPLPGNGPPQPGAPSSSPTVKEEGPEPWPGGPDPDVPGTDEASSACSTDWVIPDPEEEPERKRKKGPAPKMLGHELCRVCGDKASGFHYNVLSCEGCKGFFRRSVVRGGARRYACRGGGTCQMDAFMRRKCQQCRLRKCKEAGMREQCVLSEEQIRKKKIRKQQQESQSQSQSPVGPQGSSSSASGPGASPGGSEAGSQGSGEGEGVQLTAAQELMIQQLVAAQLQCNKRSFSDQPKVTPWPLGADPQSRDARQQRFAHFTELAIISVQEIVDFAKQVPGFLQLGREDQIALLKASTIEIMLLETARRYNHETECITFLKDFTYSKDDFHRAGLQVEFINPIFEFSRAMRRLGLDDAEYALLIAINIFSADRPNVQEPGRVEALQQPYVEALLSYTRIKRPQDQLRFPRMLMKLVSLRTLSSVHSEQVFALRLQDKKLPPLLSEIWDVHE

[4] = Luminescence Cell-Based Dose Response HTS to Identify Activators of Luciferase Translation or Activity in H4 […] Cells. [Related pubchem assays: 1829 (Project Summary), 1814 (Primary HTS)]; format: functional
[5] = molecular target: T2, Sentrin-specific protease 6 (Homo sapiens, UniProt Q9GZR1); format: functional;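 further: Luminescence-based dose-response confirmatory assay of SENP6 inhibition, following up an ultra-high-throughput screen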
T2 sequence (Q9GZR1 whole entry): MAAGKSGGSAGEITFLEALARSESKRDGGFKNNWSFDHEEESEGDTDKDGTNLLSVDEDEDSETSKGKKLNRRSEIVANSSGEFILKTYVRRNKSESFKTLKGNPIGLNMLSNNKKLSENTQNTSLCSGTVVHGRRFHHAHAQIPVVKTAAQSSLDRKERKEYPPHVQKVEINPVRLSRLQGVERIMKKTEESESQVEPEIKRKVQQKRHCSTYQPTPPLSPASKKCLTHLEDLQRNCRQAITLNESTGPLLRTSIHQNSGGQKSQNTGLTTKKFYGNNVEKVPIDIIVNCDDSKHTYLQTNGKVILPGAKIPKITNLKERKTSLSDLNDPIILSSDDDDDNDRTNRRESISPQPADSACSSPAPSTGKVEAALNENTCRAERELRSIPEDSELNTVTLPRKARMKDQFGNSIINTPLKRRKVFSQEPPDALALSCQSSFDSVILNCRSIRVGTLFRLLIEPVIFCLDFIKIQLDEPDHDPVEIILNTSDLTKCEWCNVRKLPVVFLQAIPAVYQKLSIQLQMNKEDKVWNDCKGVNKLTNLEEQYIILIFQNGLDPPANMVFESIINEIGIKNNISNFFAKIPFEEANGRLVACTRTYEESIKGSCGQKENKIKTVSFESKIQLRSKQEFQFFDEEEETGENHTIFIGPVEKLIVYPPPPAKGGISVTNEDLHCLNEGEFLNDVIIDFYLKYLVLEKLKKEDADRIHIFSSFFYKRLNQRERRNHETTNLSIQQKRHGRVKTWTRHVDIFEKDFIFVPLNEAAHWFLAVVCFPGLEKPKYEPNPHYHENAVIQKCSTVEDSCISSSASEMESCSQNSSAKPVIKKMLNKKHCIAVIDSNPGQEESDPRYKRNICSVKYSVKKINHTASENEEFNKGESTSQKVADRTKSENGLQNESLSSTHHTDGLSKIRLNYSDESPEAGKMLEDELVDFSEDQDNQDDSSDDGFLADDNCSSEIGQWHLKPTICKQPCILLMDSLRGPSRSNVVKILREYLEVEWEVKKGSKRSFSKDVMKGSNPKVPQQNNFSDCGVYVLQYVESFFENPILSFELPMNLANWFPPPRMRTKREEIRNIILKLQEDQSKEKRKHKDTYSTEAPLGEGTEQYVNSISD

[6] = molecular target: T3, Sentrin-specific protease 7 (Homo sapiens, UniProt Q9BQF6); format: functional;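 further: Luminescence-based dose-response confirmation of ultra-high-throughput screening hits, measuring inhibition of SENP7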
T3 sequence (Q9BQF6 whole entry): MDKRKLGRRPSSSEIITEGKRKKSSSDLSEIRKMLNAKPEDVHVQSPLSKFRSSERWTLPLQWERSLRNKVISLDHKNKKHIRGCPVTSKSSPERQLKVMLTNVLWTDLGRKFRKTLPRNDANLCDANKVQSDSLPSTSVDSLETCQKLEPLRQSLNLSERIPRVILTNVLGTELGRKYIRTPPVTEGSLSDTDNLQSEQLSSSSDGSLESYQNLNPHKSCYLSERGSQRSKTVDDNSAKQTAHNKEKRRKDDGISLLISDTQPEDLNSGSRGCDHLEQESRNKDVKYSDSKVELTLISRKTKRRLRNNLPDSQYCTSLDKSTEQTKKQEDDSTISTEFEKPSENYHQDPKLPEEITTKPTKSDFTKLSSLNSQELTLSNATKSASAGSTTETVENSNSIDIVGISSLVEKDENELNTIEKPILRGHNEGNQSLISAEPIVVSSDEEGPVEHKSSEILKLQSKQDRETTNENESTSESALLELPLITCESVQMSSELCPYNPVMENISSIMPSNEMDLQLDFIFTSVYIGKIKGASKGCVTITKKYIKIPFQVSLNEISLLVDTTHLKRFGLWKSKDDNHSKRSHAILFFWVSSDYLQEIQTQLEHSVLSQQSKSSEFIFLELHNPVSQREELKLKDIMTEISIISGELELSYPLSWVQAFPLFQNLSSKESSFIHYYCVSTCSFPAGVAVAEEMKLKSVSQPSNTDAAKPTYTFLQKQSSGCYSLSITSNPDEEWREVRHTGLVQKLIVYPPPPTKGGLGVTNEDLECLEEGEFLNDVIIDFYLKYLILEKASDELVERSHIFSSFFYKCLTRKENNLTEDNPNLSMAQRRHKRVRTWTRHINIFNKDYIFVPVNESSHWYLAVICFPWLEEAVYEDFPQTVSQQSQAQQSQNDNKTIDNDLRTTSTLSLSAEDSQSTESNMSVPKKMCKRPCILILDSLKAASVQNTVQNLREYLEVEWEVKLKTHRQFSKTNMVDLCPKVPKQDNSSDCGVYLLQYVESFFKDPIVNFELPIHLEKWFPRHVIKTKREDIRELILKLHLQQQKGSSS

[7] = molecular target: FAD-linked sulfhydryl oxidase ALR (Homo sapiens, UniProt P55789); assay: inhibitors of human ALR sulfhydryl oxidase, dose response, biochemical, H2O2 detection, luminescence, cherry-pick (AID 493248)
Chain of FAD-linked sulfhydryl oxidase ALR (P55789 whole entry): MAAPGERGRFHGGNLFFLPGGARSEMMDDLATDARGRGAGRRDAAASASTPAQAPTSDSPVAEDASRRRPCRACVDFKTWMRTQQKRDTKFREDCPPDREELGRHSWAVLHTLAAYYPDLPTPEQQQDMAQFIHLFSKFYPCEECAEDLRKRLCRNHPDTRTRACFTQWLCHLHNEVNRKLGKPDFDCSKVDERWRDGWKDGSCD

[8] = molecular target: T4, Caspase-3 (Homo sapiens, UniProt P42574); format: functional;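 further: Dose-response selectivity test against caspase-3 for candidate inhibitors of sentrin-specific proteases (SENPs)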
T4 sequence (P42574 whole entry): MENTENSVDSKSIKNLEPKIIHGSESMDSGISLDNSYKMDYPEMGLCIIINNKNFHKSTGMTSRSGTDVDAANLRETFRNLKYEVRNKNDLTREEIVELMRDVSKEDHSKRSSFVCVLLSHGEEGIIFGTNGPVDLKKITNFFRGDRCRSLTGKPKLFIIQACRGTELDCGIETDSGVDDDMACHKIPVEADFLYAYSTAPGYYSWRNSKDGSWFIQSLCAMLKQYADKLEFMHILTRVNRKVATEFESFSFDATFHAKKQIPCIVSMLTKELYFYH

[9] = molecular target: T5, Sentrin-specific protease 8 (Homo sapiens, UniProt Q96LD8); format: functional;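 further: luminescence read-out of SENP8 inhibition, dose-response confirmation following an ultra-high-throughput screen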
T5 sequence (Q96LD8 whole entry): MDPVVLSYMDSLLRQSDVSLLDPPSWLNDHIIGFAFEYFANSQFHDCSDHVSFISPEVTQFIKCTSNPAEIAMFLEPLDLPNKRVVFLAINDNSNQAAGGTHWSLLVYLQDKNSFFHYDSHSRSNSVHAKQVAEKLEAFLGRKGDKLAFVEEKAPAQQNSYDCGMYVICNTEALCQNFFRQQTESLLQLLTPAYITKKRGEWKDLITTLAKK

[10] = molecular target: Cytochrome P450 2D6 (Homo sapiens, UniProt P10635);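 further: CYP2D6 member of a cytochrome P450 panel assay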
Chain of Cytochrome P450 2D6 (P10635 whole entry): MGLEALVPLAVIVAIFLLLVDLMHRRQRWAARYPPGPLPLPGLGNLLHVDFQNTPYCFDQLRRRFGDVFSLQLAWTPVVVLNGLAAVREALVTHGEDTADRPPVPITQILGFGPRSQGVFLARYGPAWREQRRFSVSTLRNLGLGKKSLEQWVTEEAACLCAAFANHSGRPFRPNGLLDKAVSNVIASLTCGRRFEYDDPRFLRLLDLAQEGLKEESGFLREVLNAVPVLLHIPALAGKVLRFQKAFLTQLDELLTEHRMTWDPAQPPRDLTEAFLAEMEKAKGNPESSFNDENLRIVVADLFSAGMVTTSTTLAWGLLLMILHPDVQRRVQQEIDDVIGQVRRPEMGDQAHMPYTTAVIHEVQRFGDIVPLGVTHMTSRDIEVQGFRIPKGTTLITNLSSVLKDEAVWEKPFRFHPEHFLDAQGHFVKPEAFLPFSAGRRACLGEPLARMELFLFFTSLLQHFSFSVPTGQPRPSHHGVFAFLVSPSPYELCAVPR

[11] = molecular target: T1, Oxysterols receptor LXR-beta; format: functional, cell-based; remark: listed apart in the source
[12] = molecular target: Cytochrome P450 2C19 (Homo sapiens, UniProt P33261); assay: Cytochrome panel assay with activity outcomes. Panel member name: p450-cyp2c19 Compounds with AC50 equal or less than 10 uM are considered active; format: functional
Chain of Cytochrome P450 2C19 (P33261 whole entry): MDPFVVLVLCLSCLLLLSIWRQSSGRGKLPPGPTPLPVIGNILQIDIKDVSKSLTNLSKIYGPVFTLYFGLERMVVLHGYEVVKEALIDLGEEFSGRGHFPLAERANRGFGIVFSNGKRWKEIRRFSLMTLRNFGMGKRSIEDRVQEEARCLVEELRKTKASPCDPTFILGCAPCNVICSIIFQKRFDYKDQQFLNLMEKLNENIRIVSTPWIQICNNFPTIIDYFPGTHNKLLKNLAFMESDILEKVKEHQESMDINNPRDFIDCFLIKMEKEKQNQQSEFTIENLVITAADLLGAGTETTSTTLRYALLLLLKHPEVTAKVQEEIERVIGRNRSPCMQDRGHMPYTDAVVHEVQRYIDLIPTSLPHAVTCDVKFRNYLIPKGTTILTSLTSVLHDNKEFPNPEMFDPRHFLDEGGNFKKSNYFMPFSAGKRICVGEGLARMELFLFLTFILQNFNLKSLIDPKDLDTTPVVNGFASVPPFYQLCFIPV

[13] = cells
[14] = molecular target: Cytochrome P450 2C9 (Homo sapiens, UniProt P11712)
Chain of Cytochrome P450 2C9 (P11712 whole entry): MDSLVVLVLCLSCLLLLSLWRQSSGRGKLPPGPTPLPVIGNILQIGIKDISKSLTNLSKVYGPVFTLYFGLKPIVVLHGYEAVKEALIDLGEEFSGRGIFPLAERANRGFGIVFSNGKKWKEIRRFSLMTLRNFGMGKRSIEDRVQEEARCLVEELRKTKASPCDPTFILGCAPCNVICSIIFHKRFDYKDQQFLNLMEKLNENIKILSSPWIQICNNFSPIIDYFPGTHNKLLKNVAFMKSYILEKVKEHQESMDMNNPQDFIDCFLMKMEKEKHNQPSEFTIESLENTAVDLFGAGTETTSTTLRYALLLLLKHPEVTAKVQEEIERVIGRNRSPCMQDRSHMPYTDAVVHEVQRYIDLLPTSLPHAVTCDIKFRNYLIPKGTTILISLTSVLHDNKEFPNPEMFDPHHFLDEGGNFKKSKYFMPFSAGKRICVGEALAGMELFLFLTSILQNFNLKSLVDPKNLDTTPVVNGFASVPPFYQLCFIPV

[15] = molecular target: T6, Polyadenylate-binding protein 1 (Homo sapiens, UniProt P11940); assay: PABP1 MLLE–PAM2 interaction inhibitors, dose response, miRNA deadenylation inhibitor project, biochemical, fluorescence polarization, Cy5-PAM2 peptide, secondary (AID 602260); format: functional; conditions: read-out: IC50_Mean
T6 sequence (P11940 whole entry): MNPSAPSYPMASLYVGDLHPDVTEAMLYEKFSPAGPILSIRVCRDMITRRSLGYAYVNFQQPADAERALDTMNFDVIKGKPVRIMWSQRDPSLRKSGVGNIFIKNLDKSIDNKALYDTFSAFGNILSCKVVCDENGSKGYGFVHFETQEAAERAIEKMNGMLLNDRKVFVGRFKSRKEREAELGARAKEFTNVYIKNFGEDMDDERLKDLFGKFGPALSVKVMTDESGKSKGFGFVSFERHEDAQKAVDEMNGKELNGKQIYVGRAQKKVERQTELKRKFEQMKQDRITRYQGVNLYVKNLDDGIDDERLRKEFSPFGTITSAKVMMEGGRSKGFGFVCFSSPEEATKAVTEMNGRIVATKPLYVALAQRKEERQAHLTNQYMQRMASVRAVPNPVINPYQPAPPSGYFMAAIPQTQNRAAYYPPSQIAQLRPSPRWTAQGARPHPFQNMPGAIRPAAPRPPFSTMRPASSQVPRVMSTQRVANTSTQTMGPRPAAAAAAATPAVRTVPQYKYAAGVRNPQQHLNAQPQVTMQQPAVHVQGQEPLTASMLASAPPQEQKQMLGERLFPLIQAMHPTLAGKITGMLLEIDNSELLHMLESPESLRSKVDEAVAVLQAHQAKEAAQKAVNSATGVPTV

[16] = molecular target: T7, Aminopeptidase N (Plasmodium falciparum FcB1/Columbia, UniProt O96935); assay: P. falciparum M1AAP inhibitors, biochemical, fluorogenic H-Leu-NHMec substrate, 1536-well (AID 1445); design: species or system Plasmodium falciparum 3D7, 3D7
T7 sequence (O96935 whole entry): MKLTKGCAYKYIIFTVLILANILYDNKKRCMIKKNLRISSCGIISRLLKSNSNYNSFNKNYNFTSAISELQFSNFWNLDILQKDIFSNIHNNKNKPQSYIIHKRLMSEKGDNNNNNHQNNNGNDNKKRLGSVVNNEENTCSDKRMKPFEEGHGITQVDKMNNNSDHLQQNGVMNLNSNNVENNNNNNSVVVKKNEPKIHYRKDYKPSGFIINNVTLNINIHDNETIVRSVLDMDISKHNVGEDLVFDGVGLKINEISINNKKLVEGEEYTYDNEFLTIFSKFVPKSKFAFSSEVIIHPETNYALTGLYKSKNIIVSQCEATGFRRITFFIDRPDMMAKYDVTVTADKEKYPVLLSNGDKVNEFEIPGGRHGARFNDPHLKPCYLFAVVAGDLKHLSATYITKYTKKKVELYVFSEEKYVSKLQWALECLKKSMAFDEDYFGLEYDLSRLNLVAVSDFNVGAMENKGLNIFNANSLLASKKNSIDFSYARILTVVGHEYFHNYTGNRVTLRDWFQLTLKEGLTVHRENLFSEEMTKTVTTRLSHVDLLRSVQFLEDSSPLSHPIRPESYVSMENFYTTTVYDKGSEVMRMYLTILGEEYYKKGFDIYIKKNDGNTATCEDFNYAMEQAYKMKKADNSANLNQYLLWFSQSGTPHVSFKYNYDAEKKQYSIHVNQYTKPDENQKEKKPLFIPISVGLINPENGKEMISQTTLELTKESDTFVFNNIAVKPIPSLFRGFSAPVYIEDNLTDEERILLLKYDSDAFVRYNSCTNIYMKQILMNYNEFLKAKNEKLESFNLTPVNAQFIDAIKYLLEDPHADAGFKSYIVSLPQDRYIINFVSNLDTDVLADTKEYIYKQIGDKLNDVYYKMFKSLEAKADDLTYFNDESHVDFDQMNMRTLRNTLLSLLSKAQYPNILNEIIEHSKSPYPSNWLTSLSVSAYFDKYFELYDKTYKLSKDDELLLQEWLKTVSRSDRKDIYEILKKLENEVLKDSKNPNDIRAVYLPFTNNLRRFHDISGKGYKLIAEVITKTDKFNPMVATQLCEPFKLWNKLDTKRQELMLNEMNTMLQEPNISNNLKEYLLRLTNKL

[17] = molecular target: Endoplasmic reticulum aminopeptidase 1 (Homo sapiens, UniProt Q9NZ08); assay: ERAP1 aminopeptidase inhibitors, dose response, biochemical, cherry-pick, set 2, plate reader (AID 743314)
Chain of Endoplasmic reticulum aminopeptidase 1 (Q9NZ08 whole entry): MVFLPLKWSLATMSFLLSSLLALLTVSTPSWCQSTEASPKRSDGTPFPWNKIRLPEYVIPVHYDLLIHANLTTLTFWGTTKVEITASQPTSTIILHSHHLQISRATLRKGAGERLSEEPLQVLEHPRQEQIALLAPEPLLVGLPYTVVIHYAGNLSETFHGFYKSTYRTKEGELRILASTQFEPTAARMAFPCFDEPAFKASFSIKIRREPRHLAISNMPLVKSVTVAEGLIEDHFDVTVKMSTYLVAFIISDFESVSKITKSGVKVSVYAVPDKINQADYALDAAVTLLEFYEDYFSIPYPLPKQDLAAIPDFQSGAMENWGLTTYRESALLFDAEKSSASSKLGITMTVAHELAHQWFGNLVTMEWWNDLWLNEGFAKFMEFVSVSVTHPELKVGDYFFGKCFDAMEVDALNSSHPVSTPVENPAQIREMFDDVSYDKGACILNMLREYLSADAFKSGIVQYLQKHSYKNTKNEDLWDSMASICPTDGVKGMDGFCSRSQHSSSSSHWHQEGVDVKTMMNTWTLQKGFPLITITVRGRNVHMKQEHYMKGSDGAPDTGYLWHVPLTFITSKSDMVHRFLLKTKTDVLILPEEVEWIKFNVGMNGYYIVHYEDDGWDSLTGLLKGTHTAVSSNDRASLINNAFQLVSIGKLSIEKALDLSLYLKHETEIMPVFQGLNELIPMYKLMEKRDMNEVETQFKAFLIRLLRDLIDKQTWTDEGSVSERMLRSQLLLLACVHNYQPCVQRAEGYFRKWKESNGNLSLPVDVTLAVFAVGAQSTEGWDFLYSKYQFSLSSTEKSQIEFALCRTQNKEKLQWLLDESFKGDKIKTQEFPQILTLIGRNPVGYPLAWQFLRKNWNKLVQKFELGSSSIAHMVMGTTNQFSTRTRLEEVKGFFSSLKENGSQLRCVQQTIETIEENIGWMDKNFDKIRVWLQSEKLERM

[18] = molecular target: T6, Polyadenylate-binding protein 1; assay: PABP1 MLLE–PAM2 binding inhibitor potency, dose response, biochemical, fluorescence polarization, FITC-PAM2 peptide (AID 602259); format: functional; conditions: read-out: IC50_Mean
[19] = LGR2 antagonists, dose response, cell-based, HEK293, CRE-luciferase reporter, cherry pick, set 2 (AID 743343); format: functional;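 further: transfected cells were stimulated with diluted bursicon conditioned medium after compound addition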
[20] = A549 cell cytotoxicity, dose response, cytotoxicity control, plate reader, cherry-pick, antagonist series (AID 743412); format: functional, cell-based
[21] = HepG2 cell cytotoxicity, dose response, cytotoxicity control, plate reader, cherry-pick, antagonist series (AID 743416); format: functional, cell-based
[22] = HEK293 cell cytotoxicity, dose response, cytotoxicity control, plate reader, cherry-picked samples (AID 743446); format: functional, cell-based
[23] = MC4R antagonists, dose response, counter-screen for LGR2 antagonist project, cell-based, plate reader, cherry pick (AID 743444); format: functional;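 further: transfected HEK 293 cells stimulated with alpha-MSH peptide; potency of inhibitors of the alpha-MSH evoked signal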

SMILES: CCCS(=O)(=O)NCc1cn2c(C)csc2n1
IC50 [1]: > 100 µM (active)
EC50 [2]: 6.17 µM (active)
EC50 [3]: > 67.5 µM (inactive)
EC50 [4]: 12.6 µM (active)

IC50 [5]: 25.8 µM (active)
EC50 [3]: > 67.6 µM (inactive)
IC50 [6]: 9.64 µM (active)
AC50 [7]: 1.29 µM (active)
IC50 [8]: 34.5 µM (active)
SMILES: Cc1cccc(N=Nc2cnc(N)s2)c1
IC50 [9]: 19.1 µM (active)

SMILES: Cn1cc(-c2nnc(-c3ccccc3)o2)c2ccccc21
AC50 [10]: 3.55 µM (inconclusive)
EC50 [11]: > 67.5 µM (inactive)
AC50 [12]: inconclusive
EC50 [13]: > 67.5 µM (inactive)
AC50 [14]: inconclusive

IC50 [15]: > 66 µM (inactive)
IC50 [16]: 48.6 µM (active)
AC50 [17]: 4.88 µM (active)
IC50 [18]: 39.1 µM (inactive)
SMILES: CCN(CC)Cc1c(O)c(Cl)cc2c(C)cc(=O)oc12

SMILES: OCc1cccc(-c2cnc3c(Nc4cccc(OC(F)(F)C(F)F)c4)nccn23)c1
AC50 [19]: 23.8 µM (active)
AC50 [20]: 43.3 µM (active)
AC50 [21]: 41.7 µM (active)
AC50 [22]: > 52 µM (inactive)
AC50 [23]: 26.8 µM (active)

SMILES: CC(C)(C)c1ccc(Nc2[nH]nc3ccccc23)cc1
EC50 [11]: > 67.6 µM (inactive)
EC50 [13]: > 67.6 µM (inactive)

SMILES: N#C[C@H]1[C@H](c2ccc(C#Cc3ccccc3F)cc2)[C@H](CO)N1C(=O)C1CC1
AC50 [19]: 16.4 µM (active)
AC50 [20]: 23.9 µM (active)
AC50 [21]: 34.7 µM (active)
AC50 [22]: 15.4 µM (active)
AC50 [23]: 12.8 µM (active)

SMILES: COC(=O)[C@H]1[C@H](CO)[C@H]2Cn3c(ccc(/C=C/c4ccccc4)c3=O)[C@@H]1N2CC1CCCC1
AC50 [17]: 11.9 µM (active)

AC50 [17]: 6.65 µM (active)
SMILES: CCCN1[C@@H]2c3ccc(/C=C/c4ccccc4)c(=O)n3C[C@H]1[C@H](CO)[C@H]2C(=O)NCc1ccccn1

From ChEMBL document CHEMBL1201862, “PubChem BioAssay data set” (2004)
